“Also recorded” adds a separate entry of the source.
How the values were obtained:
LSt neurons [1] = assay: Muscimol injection into LSt neuron area 3.4 s after LSt neuron microstimulation, during ongoing rhythmic BS EMG activity (FIG. 4); format: in vivo, rat
Description: (§1) All procedures were in accordance with the European Communities Council Directives 86/609/EEC on the use of laboratory animals. Male adult sexually naïve Wistar rats (Janvier, Le Genest-St-Isle, France) of 275-325 grams, housed for at least 4 days in our animal facility before experimentation, were anesthetized with […] intraperitoneal urethane while body temperature was maintained at 37° C. with a homeothermic blanket. […] Custom-made bipolar steel wire electrodes (AS631, CoonerWire, CA, USA) were implanted into the exposed dorsal part of the right bulbospongiosus (BS) muscle. After suprapubic midline abdominal incision, a 1.1 mm diameter mineral oil-filled catheter was inserted into the lumen of the right seminal vesicle (SV) via its apex or the right vas deferens (VD) was cut and a 0.61 mm diameter catheter filled with isotonic salt solution inserted into the prostatic portion of the VD lumen. Then, the spine was exposed dorsally and fixed with a stereotaxic frame. Laminectomy was performed between vertebrae L1-T13 to expose […] spinal level and the dura was carefully removed. To improve intraspinal access, we incubated the spinal cord for 20 minutes with 3 units/μl collagenase type VII from Clostridium histolyticum (Sigma-Aldrich Chimie, St.Quentin Fallavier, France). To target T12 to L6 spinal levels in FIG. 2C, we performed 2-3 laminectomies on the same animal. Acute spinalization was performed through a complete spinal transection between T8 and T9 spinal levels one hour before microstimulation started. We performed bilateral sectioning of i) the hypogastric and pelvic nerves close to the major pelvic ganglion or iii) the dorsal nerves of the penis at the penile crus. A single experiment lasted 2 to 4 hours.
(§2) Monopolar spinal microstimulation was performed with a ‘Formvar’-coated nichrome wire of 50 μm diameter (AM-Systems Inc. WA, USA). Typically, the electrode was positioned on the dorsal surface at L4 spinal level, adjacent to the right of the dorsal spinal artery and lowered vertically with a hydraulic microdrive (Trent-Wells, Coulterville, Calif., USA) to ˜1600 μm depth in correspondence with the stereotaxic coordinates for laminae VII and X (S2), taking as electrode depth the read-out of the microdrive. A reference electrode was placed in the vicinity of the tail. Electrical stimuli were delivered using a pulse generator (model-2100, AM-Systems Inc. WA, USA). Biphasic rectangular current pulses of 0.5 ms duration applied in short trains of 60 to 100 pulses at 200 Hz for a total duration of 300 to 500 ms were applied. This stimulus was optimal without causing temporal overlap between stimulus and the SV/VD/BS muscle responses, according to preliminary experiments. […]

LSt neurons [2] = assay: Muscimol injection into LSt neuron area at L4 immediately before intraspinal microstimulation, BS EMG recording (FIG. 3); format: in vivo, rat
Description: as §1, §2

[3] = ~20 minutes after muscimol injection

## NCc1cc(=O)[nH]o1 [muscimol]
LSt neurons [1]; average of 5 animals, injection total duration 400 ms
  Time to full suppressive effect on BS EMG activity after muscimol injection: ≤ 160 ± 120 ms
LSt neurons [1]; muscimol applied 3.4 s after end of LSt neuron microstimulation, mean BS rEMG 0.3-15.3 s after injection, n=5, P<10^−5
  Rhythmic pattern of BS EMG activity, of the control response: 2±2%
LSt neurons [1]; ~200 nl of 50 μM muscimol injected 3.4 s after microstimulation, LSt neuron area adjacent to electrode tip
  Effect on ongoing BS EMG activity (example experiment): completely interrupted the BS EMG activity; also recorded: rapidly turned off BS EMG activity
LSt neurons [1]; [3]
  BS EMG response to microstimulation after recovery period: partial response recovery
LSt neurons [2]; anesthetized rats, 50 μM muscimol injected at L4 near electrode tip, microstimulation immediately after, n=5, P<10^−5
  BS EMG activity following microstimulation, of the control response: 6±5%
LSt neurons [2]; anesthetized rats, n=5, P=0.07
  BS EMG activity during the time of microstimulation (unrelated to the ejaculation response) in the presence of muscimol as compared to controls: 58±25%
LSt neurons [2]; ~200 nl of 50 μM muscimol in the vicinity of the electrode tip, immediately before microstimulation
  Effect on BS EMG activity evoked by second identical microstimulation (example experiment): abolished BS EMG activity
LSt neurons [2]; [3]
  BS EMG response to third microstimulation (recovery): partial response recovery

— patent US20090018620A1, “METHOD FOR RESTORING AN E[…]” ([…], priority 2007, published 2009)
